Patent US8962688B2, “Method for the treatment of gastrointestinal disorders” (Sucampo AG, priority 2005, dated 2015)

Assays:
[1] = test system: gastric ulcer induced by water-immersion stress; assay: Gastric ulcer induced by water-immersion stress (5 hours) in rats, single and combined treatment; format: in vivo, rat; conditions: for Inhibition of the gastric ulcer: result in words, summary of Table 4
Description: Wistar rats were used after an overnight fast with free access to water. Compound 1 (13,14-dihydro-15-keto-16,16-difluoro-PGE1) or Compound 2(13,14-dihydro-15-keto-16,16-difluoro-18(s) methyl-PGE1) was orally administered to the animals. When the effect of combined treatment with Compound 1 and proton pump inhibitor (lansoprazole or omeprazole) was evaluated, Compound 1 and proton pump inhibitor were orally administered simultaneously. Control group received the same volume of the vehicle. Ten minutes after the administration, the animals were placed in stress cages and were vertically immersed to the xiphoid process in a water bath maintained at 23° C. Five hours later, each animal was taken out from the cage and sacrificed by CO2 asphyxiation. The stomach was removed after ligating the cardiac region of stomach and the upper part of duodenum. The stomach was filled with 4 mL of physiological saline solution, and fixed in 1% formalin solution for 30 minutes. The stomach was opened along the greater curvature. The length (mm) of the individual ulcer was measured and the ulcer index was expressed as the sum of the lengths of all ulcers per stomach.

[2] = test system: indomethacin-induced stomach ulcers; assay: Indomethacin-induced stomach ulcers in rats; format: in vivo, rat
Description: Each group of test animals used consisted of 10 male rats of the Crj: Wistar strain. The animals were fasted for 24 hours before the oral administration of the Compound 1 (13,14-dihydro-15-keto-16,16-difluoro-PGE1) or the vehicle. Ten minutes after the oral administration of the test sample or the vehicle, all rats received a 20 mg/kg oral dose of indomethacin. The animals were euthanized 6 hours later. The stomach was removed and the length of the longest axis of each stomach ulcer was measured. The ulcer index was calculated as the sum of the lengths of each individual ulcer.

[3] = test system: stress-induced stomach ulcers; assay: Stress-induced (water immersion, 6 hours) stomach ulcers in rats; format: in vivo, rat; conditions: for Ulcer index (sum of lengths of each individual ulcer): mean ± SE
Description: Each group of test animals used consisted of 9 or 10 male rats of the Crj: Wistar strain. The animals were fasted for 24 hours before the oral administration of the test sample. Ten minutes after the oral administration of various doses of the Compound 1 (13,14-dihydro-15-keto-16,16-difluoro-PGE1) or the vehicle, each animal was put in a narrow cage, and was immersed in water (23° C.) up to the height of the xipoid process for 6 hours. The animals were then euthanized. The stomach was removed and the maximum length of the longest axis of each stomach ulcer was measured. The ulcer index was calculated as the sum of lengths of each individual ulcer.

[4] = test system: rabbit platelet aggregation induced with ADP; assay: Rabbit platelet aggregation induced with ADP; format: cell-based; conditions: for % Inhibition / Maximum aggregation: 10^−7 g/mL, platelet-rich plasma; for Maximum aggregation: mean ± SE, n=3; for Effect on the platelet aggregation: result in words, summary of Table 3
Description: Blood was collected from rabbits of the JW/CSK strain and citrated by mixing with sodium citrate in a ratio of 9 volumes of blood to 1 volume of 3.8% sodium citrate solution. Platelet-rich plasma (PRP) was obtained by centrifugation of the citrated blood at 1000 rpm (168×g) for 10 minutes. After collection of PRP, residual blood was further centrifuged at 3000 rpm (1670×g) for 15 minutes, and the supernatant was used as platelet-poor plasma (PPP). After pre-incubation of PRP (200 μL) with each test solution (25 μL) for 1 minutes at 37° C., 25 μL of platelet aggregation agent (ADP […]) was added. Platelet aggregation was measured with a platelet aggregation meter (HEMATRACER PAT-4A, Niko Bioscience, Inc.). Each test solution was examined with 3 different animal source platelets in duplicate fashion. Inhibition percent was calculated by comparing with the maximal aggregation with the saline-treatment group.

[5] = test system: total acid output; assay: Total gastric acid output in pylorus-ligated rats; format: in vivo, rat; conditions: oral, 30 min before pyloric ligation; 4 hours output; compared to vehicle-treated control (FIG. 1)
Description: The study was conducted according to the method described by Wong et al (Pharmacol. Soc. 32:49-56, 1989). Each group of test animals used consisted of 6 male rats of the Crj: Wistar strain. The animals were fasted for 24 hours with free access to water. Each dose formulation of Compound 1 (13,14-dihydro-15-keto-16,16-difluoro-PGE1), saline and medium chain fatty acid triglyceride (MCT) was orally administered 30 minutes before pyloric ligation. For positive control, the animals were received pentagastrin, a known gastric acid stimulator, subcutaneously at 2000 μg/kg. Under ether anesthesia, the abdomen was opened through a midline incision, the pylorus ligated with 3-0 silk suture, and the abdomen closed. The animals were kept without diet and water thereafter. Four hours after pyloric ligation, the animals were euthanized by cervical dislocation and the abdomen opened. The gastric contents were collected into sterile centrifuge tubes, and centrifuged at 3000 rpm for 10 minutes to remove solid materials. The supernatant was collected and the volume measured. A 1 mL aliquot of each gastric fluid sample was titrated to pH 7.0 with 0.01 N sodium hydroxide using an automatic […], Co., Ltd., Japan) to determine the acidity (mEq H^+/mL) Total output of gastric acid for 4 hours was calculated

| SMILES | Inhibition ([1]; 10 μg/kg p.o.) [%] | Ulcer Index Mean ± S.E. ([1]; 10 μg/kg p.o.) [mm] | Inhibition ([1]; 30 μg/kg p.o.) [%] | Ulcer Index Mean ± S.E. ([1]; 30 μg/kg p.o.) [mm] | Inhibition ([1]; 100 μg/kg p.o.) [%] | Ulcer Index Mean ± S.E. ([1]; 100 μg/kg p.o.) [mm] | Inhibition of the gastric ulcer [1] | % Inhibition [4] [%] | Maximum aggregation [4] [%] | Effect on the platelet aggregation [4] | other results |
| --- | --- | --- | --- | --- | --- | --- | --- | --- | --- | --- | --- |
| CCCCC(F)(F)C(=O)CCC1C(O)CC(=O)C1CCCCCCC(=O)O (stereo not shown) [Compound 1, 13,14-dihydro-15-keto-16,16-difluoro-PGE1] | 23 | 12.2 ± 1.9 | 36 | 10.1 ± 1.6 | 91 | 1.4 ± 0.6 | dose-dependent manner | 0 | 49.5 ± 2.5 | no effect | Ulcer index (sum of lengths of each individual ulcer) ([2]; 2 μg/kg po, 10 min before indomethacin 20 mg/kg po, mean ± SE): 27.9 ± 5.1; % Inhibition ([2]; 2 μg/kg po, versus vehicle control): 44%; Protection against indomethacin-induced ulcer formation ([2]; result in words, summary of Table 1): significant protection; % Inhibition ([3]; 3 μg/kg po): 9.2%; Ulcer index (sum of lengths of each individual ulcer) ([3]; 3 μg/kg po): 26.6 ± 3.7; % Inhibition ([3]; 10 μg/kg po): 20.1%; Ulcer index (sum of lengths of each individual ulcer) ([3]; 10 μg/kg po): 23.4 ± 4.7; % Inhibition ([3]; 30 μg/kg po): 54.3%; Ulcer index (sum of lengths of each individual ulcer) ([3]; 30 μg/kg po): 13.4 ± 2.0; % Inhibition ([3]; 100 μg/kg po): 85.3%; Ulcer index (sum of lengths of each individual ulcer) ([3]; 100 μg/kg po): 4.3 ± 1.9; Protection against stress-induced ulcer formation ([3]; result in words, summary of Table 2): protection significantly; Effect on total acid output [5]: did not affect |
| CC[C@H](C)CC(F)(F)C(=O)CC[C@H]1[C@H](O)CC(=O)[C@@H]1CCCCCCC(=O)O [Compound 2, 13,14-dihydro-15-keto-16,16-difluoro-18(s) methyl-PGE1] | 21 | 12.6 ± 2.2 | 36 | 10.2 ± 2.0 | 85 | 2.4 ± 0.9 | dose-dependent manner | – | – | – | – |
| Cc1c(OCC(F)(F)F)ccnc1C[S+]([O-])c1nc2ccccc2[nH]1 (stereo not shown) [Lansoprazole, lansoprazole, reference compound] | – | – | – | – | – | – | – | – | – | – | Ulcer Index Mean ± S.E. ([1]; Lansoprazole 1000 μg/kg p.o. alone): 4.6 ± 1.2 mm; inhibition at 1 mg/kg ([1]; Rattus norvegicus, po, Lansoprazole 1000 μg/kg p.o. alone): 46% |
| COc1ccc2[nH]c([S+]([O-])Cc3ncc(C)c(OC)c3C)nc2c1 (stereo not shown) [Omeprazole, omeprazole, reference compound] | – | – | – | – | – | – | – | – | – | – | Ulcer Index Mean ± S.E. ([1]; Omeprazole 3000 μg/kg p.o. alone): 5.9 ± 0.9 mm; inhibition at 3 mg/kg ([1]; Rattus norvegicus, po, Omeprazole 3000 μg/kg p.o. alone): 31% |
| CCCCC[C@H](O)/C=C/[C@H]1[C@H](O)CC(=O)[C@@H]1CCCCCCC(=O)O [PGE1, prostaglandin E1, reference compound] | – | – | – | – | – | – | – | 73 | 23.3 ± 1.9 | significantly inhibited | – |
